Assay results reported in patent publication US9580449B2, “Compositions and methods for the production of pyrimidine and pyridine compounds with BTK inhibitory activity” (Merck Patent GmbH, priority 2011, dated 2017).
pIC50: −log10 of the molar value.

Key:
PBMC = assay: Time Dependent PBMC IC50 assay; assay type: cell-based
Description: Compounds described by embodiments of the present invention were assayed using a time dependent PMBC assay.

full-length human BTK = full-length human BTK (Homo sapiens (Human), UniProt Q06187); assay: BTK IC50 enzyme assay (microfluidic off-chip mobility shift kinase assay); assay type: biochemical; details: incubated for 90 min. at 27 C; read-out: Time Dependent BTK Enzyme Assay IC50
Chain of full-length human BTK (Q06187 whole entry): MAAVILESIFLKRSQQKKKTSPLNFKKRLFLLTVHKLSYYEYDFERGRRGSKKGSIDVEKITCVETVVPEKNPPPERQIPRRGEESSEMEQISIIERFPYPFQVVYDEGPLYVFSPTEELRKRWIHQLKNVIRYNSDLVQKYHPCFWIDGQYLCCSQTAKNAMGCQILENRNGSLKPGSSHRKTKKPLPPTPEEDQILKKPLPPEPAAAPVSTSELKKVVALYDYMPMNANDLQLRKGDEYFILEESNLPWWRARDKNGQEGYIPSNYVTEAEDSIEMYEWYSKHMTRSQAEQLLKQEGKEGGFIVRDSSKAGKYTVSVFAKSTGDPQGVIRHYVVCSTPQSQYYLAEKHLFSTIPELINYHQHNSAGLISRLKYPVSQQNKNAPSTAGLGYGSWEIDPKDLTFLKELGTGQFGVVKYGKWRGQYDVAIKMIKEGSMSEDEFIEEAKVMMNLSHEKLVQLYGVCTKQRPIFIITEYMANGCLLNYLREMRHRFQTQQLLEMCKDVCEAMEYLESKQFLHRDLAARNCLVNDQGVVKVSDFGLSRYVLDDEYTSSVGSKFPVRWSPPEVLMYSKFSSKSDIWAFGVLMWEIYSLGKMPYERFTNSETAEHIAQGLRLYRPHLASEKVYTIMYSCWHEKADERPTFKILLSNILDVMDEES
Summary of the method: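 Read-out separates phosphorylated peptide product from substrate by charge/mass in a mobility shift format with full-length human BTK.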

BTK = BTK (Homo sapiens (Human), UniProt Q06187); assay: Time Dependent Human Whole Blood IC50 assay; assay type: cell-based; details: human whole blood; read-out: Time Dependent Human Whole Blood BTK Enzyme Assay IC50
Chain of BTK (Q06187 whole entry): as above
Description: Compounds described by embodiments of the present invention were assayed using a human whole blood assay. The data from the same is recorded in Table 2 within the column labeled: “Time Dependent Human Whole Blood BTK Enzyme Assay IC50”.

NZB/W F1 mice = assay: Interferon-alpha accelerated systemic lupus erythematosus (SLE) mouse model; assay type: in vivo; details: oral, daily from day 14, 0.1, 0.3, 1, or 3 mg/kg; NZB/W F1 mice with ADV-IFN-α
Description: 1-(4-(((6-amino-5-(4-phenoxyphenyl)pyrimidin-4-yl)amino)methyl)piperidin-1-yl)prop-2-en-1-one, designated as “CPD. B”, was evaluated in an interferon-alpha accelerated SLE mouse model. NZB/W F1 mice received i.v. injection at day 0 and day 1 of 10^8 infectious units of adenovirus (ADV-IFN-α) to deliver a transient overexpression on interferon alpha. Oral dosing of the different group treatments was initiated on day 14 and continued daily at 24 hour intervals until the end of the study. Treatment groups consisted of 20% Kleptose HPB in Na-citrate buffer (vehicle) or 0.1, 0.3, 1, or 3 mg/kg of Cpd. […] As shown in Panel 1B Cpd. […] FIG. 2 presents data from another interferon-alpha accelerated SLE experiment in mice. NZB/W F1 mice received i.v. injections at day 0 and day 1 of 10^8 infectious units of adenovirus (ADV-IFN-α) to deliver a transient overexpression on interferon alpha. Oral dosing of the different group treatments (n=10) was initiated on day 14 and continued daily at 24 hour intervals until the end of the study. Treatment groups consisted of 20% Kleptose HPB in Na-citrate buffer (vehicle), 0.1, 0.3, 1, or 3 mg/kg of Cpd. B or Cell Cept®. […] Statistical analysis was performed using Two way ANOVA with Bonferroni post test with all groups compared to vehicle treated group (*=p<0.05, **=p<0.01, ***=p<0.001).

| pIC50 (full-length human BTK) | pIC50 (BTK) | SMILES | pIC50 (PBMC) | disease activity (NZB/W F1 mice) |
| --- | --- | --- | --- | --- |
| > 7.00 | > 6.00 | C=CC(=O)Nc1cccc(Oc2ncnc(N)c2-c2cnn(Cc3ccccc3)c2)c1 [A172, N-(3-((6-amino-5-(1-benzyl-1H-pyrazol-4-yl)pyrimidin-4-yl)oxy)phenyl)acrylamide] | > 6.00 | – |
| > 7.00 | > 6.00 | C=CC(=O)Nc1ccc(F)c(Oc2ncnc(N)c2-c2ccc(Oc3ccccc3)cc2)c1 [A246, N-(3-((6-amino-5-(4-phenoxyphenyl)pyrimidin-4-yl)oxy)-4-fluorophenyl)acrylamide] | > 6.00 | – |
| > 7.00 | > 6.00 | C=CC(=O)Nc1cc(Oc2ncnc(N)c2-c2ccc(Oc3ccccc3)cc2)c(F)cc1F [A251, N-(5-((6-amino-5-(4-phenoxyphenyl)pyrimidin-4-yl)oxy)-2,4-difluorophenyl)acrylamide] | > 6.00 | – |
| – | – | C=CC(=O)N1CCC(CNc2ncnc(N)c2-c2ccc(Oc3ccccc3)cc2)CC1 [Cpd. B, 1-(4-(((6-amino-5-(4-phenoxyphenyl)pyrimidin-4-yl)amino)methyl)piperidin-1-yl)prop-2-en-1-one] | – | reduces the disease activity in a dose-dependent manner |
